Test results taken from PubChem BioAssay AID2060329 (Molecular Pharmacology Branch, DTP, NCI, 2025).

Test system: MCF7 multi-cell spheroids with HUVEC/MSC, viability
Test: Anticancer human tumor MCF7 cell line growth inhibition [IpAb];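 further: spheroids exposed to agents for seven days before readout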
Settings: for IC50: curve of first compound; for viability, T/C: stronger effect = lower value; active means viability on the fitted dose curve at most 10% of control; inactive means the rest
How it was run: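 Spheroids of 60% malignant cells, 25% HUVEC and 15% MSC were exposed to targeted agents combined with ipatasertib or abemaciclib. Doses started at or near clinical Cmax (10 microM when unknown) and fell in half-log steps.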

[1] = second compound 0.01 µM, first compound 0.0316 µM
[2] = second compound 0.01 µM, first compound 0.1 µM
[3] = second compound 0.01 µM, first compound 0.316 µM
[4] = second compound 0.01 µM, first compound 1 µM
[5] = second compound 0.01 µM, first compound 3.16 µM
[6] = second compound 0.01 µM, first compound 10 µM
[7] = second compound 0.0316 µM, first compound 0.0316 µM
[8] = second compound 0.0316 µM, first compound 0.1 µM
[9] = second compound 0.0316 µM, first compound 0.316 µM
[10] = second compound 0.0316 µM, first compound 1 µM
[11] = second compound 0.0316 µM, first compound 3.16 µM
[12] = second compound 0.0316 µM, first compound 10 µM
[13] = second compound 0.1 µM, first compound 0.0316 µM
[14] = second compound 0.1 µM, first compound 0.1 µM
[15] = second compound 0.1 µM, first compound 0.316 µM
[16] = second compound 0.1 µM, first compound 1 µM
[17] = second compound 0.1 µM, first compound 3.16 µM
[18] = second compound 0.1 µM, first compound 10 µM
[19] = second compound 0.316 µM, first compound 0.0316 µM
[20] = second compound 0.316 µM, first compound 0.1 µM
[21] = second compound 0.316 µM, first compound 0.316 µM
[22] = second compound 0.316 µM, first compound 1 µM
[23] = second compound 0.316 µM, first compound 3.16 µM
[24] = second compound 0.316 µM, first compound 10 µM
[25] = second compound 1 µM, first compound 0.0316 µM
[26] = second compound 1 µM, first compound 0.1 µM
[27] = second compound 1 µM, first compound 0.316 µM
[28] = second compound 1 µM, first compound 1 µM
[29] = second compound 1 µM, first compound 3.16 µM
[30] = second compound 1 µM, first compound 10 µM

CC(C)(C)c1cnc(CSc2cnc(NC(=O)C3CCNCC3)s2)o1 + CC(C)NCC(C(=O)N1CCN(c2ncnc3c2C(C)CC3O)CC1)c1ccc(Cl)cc1
40.4 nM: IC50 (second compound 3.16 µM)
81.1 nM: IC50 (second compound 1 µM)
89.4 nM: IC50 (second compound 0.1 µM)
inactive: viability, T/C (second compound 0.1 µM, first compound 0.00949 µM) 87.9% | viability, T/C (second compound 0.1 µM, first compound 0.03 µM) 98% | viability, T/C (second compound 0.1 µM, first compound 0.0949 µM) 47.7% | viability, T/C (second compound 0.1 µM, first compound 0.3 µM) 22.2% | viability, T/C (second compound 0.1 µM, first compound 0.949 µM) 29.6% | viability, T/C (second compound 0.1 µM, first compound 3 µM) 32.6% | viability, T/C (second compound 0.316 µM, first compound 0.00949 µM) 83.9% | viability, T/C (second compound 0.316 µM, first compound 0.03 µM) 87% | viability, T/C (second compound 0.316 µM, first compound 0.0949 µM) 47.3% | viability, T/C (second compound 0.316 µM, first compound 0.3 µM) 22.4% | viability, T/C (second compound 0.316 µM, first compound 0.949 µM) 29% | viability, T/C (second compound 0.316 µM, first compound 3 µM) 29.9% | viability, T/C (second compound 1 µM, first compound 0.00949 µM) 76.5% | viability, T/C (second compound 1 µM, first compound 0.03 µM) 75.6% | viability, T/C (second compound 1 µM, first compound 0.0949 µM) 45.9% | viability, T/C (second compound 1 µM, first compound 0.3 µM) 21.6% | viability, T/C (second compound 1 µM, first compound 0.949 µM) 25.3% | viability, T/C (second compound 1 µM, first compound 3 µM) 28.9% | viability, T/C (second compound 3.16 µM, first compound 0.00949 µM) 54.8% | viability, T/C (second compound 3.16 µM, first compound 0.03 µM) 61.6% | viability, T/C (second compound 3.16 µM, first compound 0.0949 µM) 26.4% | viability, T/C (second compound 3.16 µM, first compound 0.3 µM) 20.2% | viability, T/C (second compound 3.16 µM, first compound 0.949 µM) 22.2% | viability, T/C (second compound 3.16 µM, first compound 3 µM) 24.9% | viability, T/C (second compound 10 µM, first compound 0.00949 µM) 47.1% | viability, T/C (second compound 10 µM, first compound 0.03 µM) 49.8% | viability, T/C (second compound 10 µM, first compound 0.0949 µM) 14.4% | viability, T/C (second compound 10 µM, first compound 0.3 µM) 17.9% | viability, T/C (second compound 10 µM, first compound 0.949 µM) 21.1% | viability, T/C (second compound 10 µM, first compound 3 µM) 22.1%
9.49 nM: IC50 (second compound 10 µM)
87.5 nM: IC50 (second compound 0.316 µM)

Cn1ncc(Cl)c1-c1cc(C(=O)NC(CN)Cc2cccc(F)c2)sc1Cl (stereo not given) + CCN1CCN(Cc2ccc(Nc3ncc(F)c(-c4cc(F)c5nc(C)n(C(C)C)c5c4)n3)nc2)CC1
838 nM: IC50 (second compound 0.1 µM)
active: viability, T/C [6] 0.18% | viability, T/C [11] 4.25% | viability, T/C [12] 0.13% | viability, T/C [18] 0.15% | viability, T/C [23] 7.44% | viability, T/C [24] 0.17% | viability, T/C [30] 0.23%
715 nM: IC50 (second compound 1 µM)
inactive: viability, T/C [1] 93% | viability, T/C [2] 85.9% | viability, T/C [3] 65.2% | viability, T/C [4] 53.2% | viability, T/C [5] 15% | viability, T/C [7] 91.9% | viability, T/C [8] 89.6% | viability, T/C [9] 70.7% | viability, T/C [10] 46.8% | viability, T/C [13] 94.7% | viability, T/C [14] 86.3% | viability, T/C [15] 69% | viability, T/C [16] 53.1% | viability, T/C [17] 5.55% | viability, T/C [19] 95.7% | viability, T/C [20] 88.4% | viability, T/C [21] 78.8% | viability, T/C [22] 64.5% | viability, T/C [25] 98.7% | viability, T/C [26] 81.1% | viability, T/C [27] 62.9% | viability, T/C [28] 56.2% | viability, T/C [29] 0.7%
1320 nM: IC50 (second compound 0.316 µM)
847 nM: IC50 (second compound 0.01 µM)
758 nM: IC50 (second compound 0.0316 µM)

C=CC(=O)N1CCN(c2nc(=O)n(-c3c(C)ccnc3C(C)C)c3nc(-c4c(O)cccc4F)c(F)cc23)C(C)C1 (stereo not given) + CC(C)NCC(C(=O)N1CCN(c2ncnc3c2C(C)CC3O)CC1)c1ccc(Cl)cc1
1060 nM: IC50 (second compound 3.16 µM)
6940 nM: IC50 (second compound 0.316 µM)
< 31.6 nM: IC50 (second compound 10 µM)
2710 nM: IC50 (second compound 1 µM)
inactive: viability, T/C [13] 82.4% | viability, T/C [14] 99.8% | viability, T/C [15] 100% | viability, T/C [16] 90.8% | viability, T/C [17] 78.3% | viability, T/C [18] 44.5% | viability, T/C [19] 79.5% | viability, T/C [20] 87.3% | viability, T/C [21] 77.1% | viability, T/C [22] 73.3% | viability, T/C [23] 68.4% | viability, T/C [24] 41.6% | viability, T/C [25] 74.5% | viability, T/C [26] 73.3% | viability, T/C [27] 65.4% | viability, T/C [28] 65.8% | viability, T/C [29] 46.6% | viability, T/C [30] 32.8% | viability, T/C (second compound 3.16 µM, first compound 0.0316 µM) 58.6% | viability, T/C (second compound 3.16 µM, first compound 0.1 µM) 53.4% | viability, T/C (second compound 3.16 µM, first compound 0.316 µM) 56.6% | viability, T/C (second compound 3.16 µM, first compound 1 µM) 50.2% | viability, T/C (second compound 3.16 µM, first compound 3.16 µM) 38.7% | viability, T/C (second compound 3.16 µM, first compound 10 µM) 22.6% | viability, T/C (second compound 10 µM, first compound 0.0316 µM) 47.7% | viability, T/C (second compound 10 µM, first compound 0.1 µM) 41.3% | viability, T/C (second compound 10 µM, first compound 0.316 µM) 44% | viability, T/C (second compound 10 µM, first compound 1 µM) 36.3% | viability, T/C (second compound 10 µM, first compound 3.16 µM) 40.9% | viability, T/C (second compound 10 µM, first compound 10 µM) 22.6%
8300 nM: IC50 (second compound 0.1 µM)

Cn1nccc1Nc1nccc(-c2ccn(C(CO)c3ccc(Cl)c(F)c3)c(=O)c2)n1 (stereo not given) + CCN1CCN(Cc2ccc(Nc3ncc(F)c(-c4cc(F)c5nc(C)n(C(C)C)c5c4)n3)nc2)CC1
> 10000 nM: IC50 (second compound 0.01 µM) | IC50 (second compound 0.0316 µM) | IC50 (second compound 0.1 µM) | IC50 (second compound 0.316 µM) | IC50 (second compound 1 µM)
inactive: viability, T/C [1] 107% | viability, T/C [2] 113% | viability, T/C [3] 115% | viability, T/C [4] 126% | viability, T/C [5] 143% | viability, T/C [6] 104% | viability, T/C [7] 105% | viability, T/C [8] 116% | viability, T/C [9] 128% | viability, T/C [10] 136% | viability, T/C [11] 138% | viability, T/C [12] 62.1% | viability, T/C [13] 116% | viability, T/C [14] 129% | viability, T/C [15] 139% | viability, T/C [16] 136% | viability, T/C [17] 139% | viability, T/C [18] 74.8% | viability, T/C [19] 119% | viability, T/C [20] 115% | viability, T/C [21] 131% | viability, T/C [22] 143% | viability, T/C [23] 133% | viability, T/C [24] 95% | viability, T/C [25] 126% | viability, T/C [26] 125% | viability, T/C [27] 123% | viability, T/C [28] 148% | viability, T/C [29] 145% | viability, T/C [30] 113%
